From patent publication US20250115597A1, “TYK2 INHIBITORS AND COMPOSITIONS AND METHODS THEREOF” (LYNK PHARMACEUTICALS CO. LTD., priority 2021, published 2025) come the findings set out here.

The target of this assay is T1, Ba/F3-FL-TYK2-P760L cells (Homo sapiens, UniProt P29597, P760L, cells depend on it).
T1 construct: BaF3-FL-T2P760L (nM)
Description: Anti-proliferative assay, Ba/F3-FL-TYK2-P760L cells (Cell-Titer Glo). The class given is cell-based. The conditions noted are these: 72 h, read-out: BaF3-FL-T2P760L IC50. The method in brief: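 Compound exposure ran 72 h at 37 °C in 5% CO2 across nine 3-fold concentrations from a 20 μM top dose, added 24 h after seeding 2000 cells/well.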

T1 sequence (P29597 whole entry P760L): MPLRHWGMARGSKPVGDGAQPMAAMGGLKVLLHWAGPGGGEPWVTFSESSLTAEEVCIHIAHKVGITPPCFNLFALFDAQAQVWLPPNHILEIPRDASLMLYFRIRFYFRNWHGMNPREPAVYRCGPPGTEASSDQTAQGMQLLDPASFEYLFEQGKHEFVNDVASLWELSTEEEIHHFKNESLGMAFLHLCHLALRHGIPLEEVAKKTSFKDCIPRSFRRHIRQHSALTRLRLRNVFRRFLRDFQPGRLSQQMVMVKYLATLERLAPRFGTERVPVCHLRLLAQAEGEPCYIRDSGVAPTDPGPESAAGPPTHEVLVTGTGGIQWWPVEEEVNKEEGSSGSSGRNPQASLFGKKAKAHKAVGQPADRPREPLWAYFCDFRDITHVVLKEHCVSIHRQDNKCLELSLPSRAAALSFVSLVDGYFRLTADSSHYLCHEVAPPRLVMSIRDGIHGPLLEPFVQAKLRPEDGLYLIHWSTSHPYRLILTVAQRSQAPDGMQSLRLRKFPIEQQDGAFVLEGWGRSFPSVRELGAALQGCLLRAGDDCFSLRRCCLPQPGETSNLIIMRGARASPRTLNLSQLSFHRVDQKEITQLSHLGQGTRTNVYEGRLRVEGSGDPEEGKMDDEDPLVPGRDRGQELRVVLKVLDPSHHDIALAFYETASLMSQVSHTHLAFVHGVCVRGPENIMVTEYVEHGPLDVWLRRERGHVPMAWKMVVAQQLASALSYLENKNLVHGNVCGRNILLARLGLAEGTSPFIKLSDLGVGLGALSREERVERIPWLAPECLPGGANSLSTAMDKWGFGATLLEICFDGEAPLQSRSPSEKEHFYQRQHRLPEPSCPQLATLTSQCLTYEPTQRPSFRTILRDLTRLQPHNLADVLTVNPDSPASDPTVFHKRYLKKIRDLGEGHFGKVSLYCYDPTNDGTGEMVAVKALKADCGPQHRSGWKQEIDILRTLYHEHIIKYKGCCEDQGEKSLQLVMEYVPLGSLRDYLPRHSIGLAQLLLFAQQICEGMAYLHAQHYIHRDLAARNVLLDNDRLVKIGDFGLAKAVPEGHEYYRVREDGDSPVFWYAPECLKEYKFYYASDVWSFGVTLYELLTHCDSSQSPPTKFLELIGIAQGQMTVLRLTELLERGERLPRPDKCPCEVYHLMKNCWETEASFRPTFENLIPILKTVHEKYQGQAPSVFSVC

Regarding `[2H]C([2H])([2H])NC(=O)c1cnc(Nc2ccc(F)cn2)cc1Nc1cn(C)c2c(F)cn(C)c(=O)c12` [Example 122, 4-((7-Fluoro-1,5-dimethyl-4-oxo-4,5-dihydro-1H-pyrrolo[3,2-c]pyridin-3-yl)amino)-6-((5-fluoropyridin-2-yl)amino)-N-(methyl-d3)nicotinamide], the GI50 stood at 0.0347 µM.
To `[2H]C([2H])([2H])NC(=O)c1cnc(Nc2ccn(C)n2)nc1Nc1cccc(-c2ncn(C)n2)c1OC` [Example 60, 4-((2-Methoxy-3-(1-methyl-1H-1,2,4-triazol-3-yl)phenyl)amino)-N-(methyl-d3)-2-((1-methyl-1H-pyrazol-3-yl)amino)pyrimidine-5-carboxamide] belongs 1.41 µM.
Turning to `[2H]C([2H])([2H])NC(=O)c1cnc(Nc2ccc(F)cn2)cc1Nc1cn(C)c2c(F)cn(CC(F)(F)F)c(=O)c12` [Example 124, 4-((7-Fluoro-1-methyl-4-oxo-5-(2,2,2-trifluoroethyl)-4,5-dihydro-1H-pyrrolo[3,2-c]pyridin-3-yl)amino)-6-((5-fluoropyridin-2-yl)amino)-N-(methyl-d3)nicotinamide], the GI50 is 0.0348 µM.
As for `CNC(=O)c1cnc(NC(=O)C2CC2)cc1Nc1cn(C)c2ncn([C@@H](C)C(F)(F)F)c(=O)c12` (single isomer, unassigned) [Example 234B, (S*)-6-(cyclopropanecarboxamido)-N-(methyl-d3)-4-((7-methyl-4-oxo-3-(1,1,1-trifluoropropan-2-yl)-4,7-dihydro-3H-pyrrolo[2,3-d]pyrimidin-5-yl)amino)nicotinamide], the GI50 was 0.599 µM.
For the molecule `[2H]C([2H])([2H])NC(=O)c1nnc2cc1Nc1cc(cc(-c3nc(C)co3)c1OC)COCc1nc(ccc1F)N2` [Example 93, 18-Fluoro-10-methoxy-N-(methyl-d3)-11-(4-methyl-1,3-oxazol-2-yl)-15-oxa-2,4,5,8,21-pentaazatetracyclo[15.3.1.1^{3,7}.1^{9,13}]tricosa-1(20),3,5,7(23),9(22),10,12,17(21),18-nonaene-6-carboxamide], the GI50 is 0.097 µM.
The same measure for `[2H]C([2H])([2H])NC(=O)c1cnc(Nc2cnn(C3CCOC3)c2)nc1Nc1cccc(-c2ncn(C)n2)c1OC` (stereo not shown) [Example 31, 4-((2-Methoxy-3-(1-methyl-1H-1,2,4-triazol-3-yl)phenyl)amino)-N-(methyl-d3)-2-((1-(tetrahydrofuran-3-yl)-1H-pyrazol-4-yl)amino)pyrimidine-5-carboxamide]: 0.303 µM.
To `CCn1ccc2c(c(Nc3nc(Nc4ccc(F)cc4F)ncc3C(=O)NC)cn2C)c1=O` [Example 9, 2-((2,4-Difluorophenyl)amino)-4-((5-ethyl-1-methyl-4-oxo-4,5-dihydro-1H-pyrrolo[3,2-c]pyridin-3-yl)amino)-N-methylpyrimidine-5-carboxamide] belongs 0.74 µM; to `[2H]C([2H])([2H])NC(=O)c1cnc(NC(=O)C2CC2)cc1Nc1cn(C)c2ccn(C(C)C(F)(F)F)c(=O)c12` (single isomer, unassigned) [Example 190B, (S*)-6-(Cyclopropanecarboxamido)-N-(methyl-d3)-4-((1-methyl-4-oxo-5-(1,1,1-trifluoropropan-2-yl)-4,5-dihydro-1H-pyrrolo[3,2-c]pyridin-3-yl)amino)nicotinamide], 0.327 µM.
The same measure for `[2H]C([2H])([2H])NC(=O)c1nnc(NC(=O)C2CC2)cc1Nc1csc2ccn(C)c(=O)c12` [Example 196, 6-(Cyclopropanecarboxamido)-N-(methyl-d3)-4-((5-methyl-4-oxo-4,5-dihydrothieno[3,2-c]pyridin-3-yl)amino)pyridazine-3-carboxamide]: 0.0457 µM; for `[2H]C([2H])([2H])NC(=O)c1nnc2cc1Nc1cc(cc(-c3ncn(C)n3)c1OC)CCC(O)c1nc(ccc1F)N2` (stereo not shown) [Example 92, 18-Fluoro-16-hydroxy-10-methoxy-N-(methyl-d3)-11-(1-methyl-1H-1,2,4-triazol-3-yl)-2,4,5,8,21-pentaazatetracyclo[15.3.1.1^{3,7}.1^{9,13}]tricosa-1(20),3,5,7(23),9(22),10,12,17(21),18-nonaene-6-carboxamide]: 0.3 µM.
